Reference: patent publication US7727949B2, “Cleaning agent for thermostatic chambers” (Wako Pure Chemical Industries, Ltd., priority 2005, dated 2010)

Tests used:
Format in all cases: cell-based
[1] = tested on: Pseudonas aeruginosa (NBRC12689); experiment: Study of germicidal activity of agents in the presence of proteins; parameters: key to growth of the microorganism P.a: a case where growth of the microorganism on the surface of the medium was recognized is shown by +; a case where growth of the microorganism on the surface of the medium was not recognized is shown by −; conditions: for growth of the microorganism P.a: agent 50 μg/mL
Experimental: (§1) Didecyldimethylammonium adipate (DDAA), N-bis(3-aminopropyl)dodecylamine (TAA) and benzalkonium chloride were respectively prepared such that a concentration thereof is 1 w/w %.
(§2) GOT solution: GOT Substrate-Enzyme solution and GOT•L2α-KG solution which were components of L type Wako GOT•J2 kit (produced by Wako Pure Chemical Industries, Ltd.) were prepared with distilled water so as to become a 0.1 w/w % aqueous solution.
(§3) GPT solution: GOT Substrate-Enzyme solution and GOT•L2α-KG solution which were components of L type Wako GPT•J2 kit (produced by Wako Pure Chemical Industries, Ltd.) were prepared with distilled water so as to become a 0.1 w/w % aqueous solution.
(§4) Serum: Control Serum II Wako (produced by Wako Pure Chemical Industries, Ltd.) was prepared with distilled water so as to become a 0.1 w/w % aqueous solution.
(§5) i) The individual test microorganism, which was preliminarily cultured in bouillon medium in advance until 1×10^8 microorganisms/mL, were diluted with sterilized physiological saline for 100 times (to 1×10^6 microorganisms/mL) to obtain a solution of test microorganisms. ii) Into a 20 mL test tube made of glass which was preliminarily sterilized by dry-heat sterilization, the agent aqueous solution, the reagent solution and the solution of test microorganisms as prepared in the above described i) were added such that a final concentration of the agent become 50 μg/mL, a final concentration of the reagent become 100 μg/mL, and the number of test microorganisms become 1×10^5 microorganisms/mL, respectively, when a total volume thereof is prepared to be 10 mL. And then, the tube was sufficiently stirred. iii) After a lapse of predetermined times (5 min, 10 min, and 15 min), the solution as obtained in the above described ii) was smeared with a platinum loop on the surface of the nutrient agar plate medium preliminarily having been prepared, and the medium was cultured at 35° C.±2° C. for 24 hours. iv) After the cultivation, confirming the presence or not of the growth of the microorganisms on the surface of the medium was conducted. (3) Result
(§6) In Table 3, a case where growth of the microorganism on the surface of the medium was recognized is shown by +, and a case where growth of the microorganism on the surface of the medium was not recognized is shown by −, respectively.

[2] = tested on: Staphylococcus aureus (NBRC12732); experiment: as above; parameters: key to growth of the microorganism S.a: a case where growth of the microorganism on the surface of the medium was recognized is shown by +; a case where growth of the microorganism on the surface of the medium was not recognized is shown by −; conditions: for growth of the microorganism S.a: agent 50 μg/mL
Experimental: as §1, §2, §3, §4, §5, §6

[3] = tested on: Escherichia coli (NBRC3972); experiment: as above; parameters: key: a case where growth of the microorganism on the surface of the medium was recognized is shown by +; a case where growth of the microorganism on the surface of the medium was not recognized is shown by −; conditions: agent 50 μg/mL
Experimental: as §1, §2, §3, §4, §5, §6

[4] = tested on: Bacillus subtilis (NBRC13719); experiment: as above; parameters: key: a case where growth of the microorganism on the surface of the medium was recognized is shown by +; a case where growth of the microorganism on the surface of the medium was not recognized is shown by −; conditions: agent 50 μg/mL
Experimental: as §1, §2, §3, §4, §5, §6

[5] = tested on: Chaetomium globosum (NBRC6347); experiment: Study of antimicrobial activity (MIC, agar plate medium)
Experimental: (§7) In a sterilized petri dish having a diameter of 90 mm, an aqueous solution which was obtained by diluting each of agents with distilled water such that a concentration of the agent become each predetermined concentrations when the solution is prepared to a total volume of 20 mL, and then sterilized water was added into the petri dish such that a total volume of sterilized water and the agent aqueous solution become 2 mL. Further, 18 mL of nutrient agar medium, which was sterilized with high pressure steam and preserved at 50° C.±2° C., was added into the petri dish, and it was solidified to obtain an agar plate medium.
(§8) The individual test microorganism, which was preliminarily cultured in bouillon medium in advance until 1×10^8 microorganisms/mL, was diluted with sterilized physiological saline for 100 times (to 1×10^6 microorganisms/mL). Next, prepared solution of the test microorganism was smeared with a platinum loop on the surface of the agar plate medium prepared in (2), and the medium was cultured at 35° C.±2° C., for 24 hours.
(§9) After the cultivation, confirming the presence or not of growth of the microorganism on the surface of the medium was conducted, a minimum concentration of the agent, where growth of the microorganisms cannot be recognized, was determined as the minimum inhibitory concentration (MIC, μg/mL) of the agent.

[6] = tested on: Escherichia coli (NBRC3972); experiment: as above
Experimental: as §7, §8, §9

[7] = tested on: Trichoderma viride (NBRC31831); experiment: as above
Experimental: as §7, §8, §9

[8] = tested on: Penicillium citrinum (NBRC6352); experiment: as above
Experimental: as §7, §8, §9

[9] = tested on: Pseudonas aeruginosa (NBRC12689); experiment: as above
Experimental: as §7, §8, §9

[10] = tested on: Cladosporium cladosporioides (NBRC6348); experiment: as above
Experimental: as §7, §8, §9

[11] = tested on: Aspergillus niger (NBRC6341); experiment: as above
Experimental: as §7, §8, §9

[12] = tested on: Staphylococcus aureus (NBRC12732); experiment: as above
Experimental: as §7, §8, §9

[13] = tested on: Bacillus subtilis (NBRC13719); experiment: as above
Experimental: as §7, §8, §9

[14] = data are not shown, effect does not change in the presence of protein

CCCCCCCCCCCCN(CCCN)CCCN [TAA, N-bis(3-aminopropyl)dodecylamine]
growth of the microorganism P.a ([1]; GOT, 5 min): −
growth of the microorganism P.a ([1]; GOT, 10 min): −
growth of the microorganism P.a ([1]; GOT, 15 min): −
growth of the microorganism P.a ([1]; GPT, 5 min): −
growth of the microorganism P.a ([1]; GPT, 10 min): −
growth of the microorganism P.a ([1]; GPT, 15 min): −
growth of the microorganism P.a ([1]; Serum, 5 min): −
growth of the microorganism P.a ([1]; Serum, 10 min): −
growth of the microorganism P.a ([1]; Serum, 15 min): −
germicidal activity to Pseudonas aeruginous [1, 14]: high germicidal activity
growth of the microorganism S.a ([2]; GOT, 5 min): −
growth of the microorganism S.a ([2]; GOT, 10 min): −
growth of the microorganism S.a ([2]; GOT, 15 min): −
growth of the microorganism S.a ([2]; GPT, 5 min): −
growth of the microorganism S.a ([2]; GPT, 10 min): −
growth of the microorganism S.a ([2]; GPT, 15 min): −
growth of the microorganism S.a ([2]; Serum, 5 min): −
growth of the microorganism S.a ([2]; Serum, 10 min): −
growth of the microorganism S.a ([2]; Serum, 15 min): −
germicidal activity to Staphylococcus aureus [2, 14]: high germicidal activity
growth of the microorganism E.c ([3]; GOT, 5 min): +
growth of the microorganism E.c ([3]; GOT, 10 min): +
growth of the microorganism E.c ([3]; GOT, 15 min): +
growth of the microorganism E.c ([3]; GPT, 5 min): +
growth of the microorganism E.c ([3]; GPT, 10 min): +
growth of the microorganism E.c ([3]; GPT, 15 min): +
growth of the microorganism E.c ([3]; Serum, 5 min): +
growth of the microorganism E.c ([3]; Serum, 10 min): +
growth of the microorganism E.c ([3]; Serum, 15 min): +
growth of the microorganism B.s ([4]; GOT, 5 min): +
growth of the microorganism B.s ([4]; GOT, 10 min): +
growth of the microorganism B.s ([4]; GOT, 15 min): +
growth of the microorganism B.s ([4]; GPT, 5 min): +
growth of the microorganism B.s ([4]; GPT, 10 min): +
growth of the microorganism B.s ([4]; GPT, 15 min): +
growth of the microorganism B.s ([4]; Serum, 5 min): +
growth of the microorganism B.s ([4]; Serum, 10 min): +
growth of the microorganism B.s ([4]; Serum, 15 min): +
Minimum Inhibitory Concentration C.g [5]: 100 µg/mL
Minimum Inhibitory Concentration E.c [6]: 50 µg/mL
Minimum Inhibitory Concentration T.v [7]: 50 µg/mL
Minimum Inhibitory Concentration P.c [8]: 200 µg/mL
Minimum Inhibitory Concentration P.a [9]: 100 µg/mL
Minimum Inhibitory Concentration Cl.cl [10]: 25 µg/mL
Minimum Inhibitory Concentration A.n [11]: 200 µg/mL
Minimum Inhibitory Concentration S.a [12]: 3.125 µg/mL
Minimum Inhibitory Concentration B.s [13]: 3.125 µg/mL
